The experiment deals with T1, MAGL (recombinant wild-type) (Homo sapiens, UniProt Q99685).
T1 sequence (Q99685 1-303): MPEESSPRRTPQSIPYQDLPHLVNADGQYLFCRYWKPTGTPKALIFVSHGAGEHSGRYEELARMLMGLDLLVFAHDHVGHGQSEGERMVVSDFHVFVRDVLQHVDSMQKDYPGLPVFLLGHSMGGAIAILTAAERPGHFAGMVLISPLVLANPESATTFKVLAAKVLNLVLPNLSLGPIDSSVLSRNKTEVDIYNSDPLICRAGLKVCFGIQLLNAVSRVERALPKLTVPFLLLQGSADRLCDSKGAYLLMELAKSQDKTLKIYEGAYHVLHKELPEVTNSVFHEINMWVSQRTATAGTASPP
Nature of the experiment: MAGL inhibitory activity, hydrolysis of 4-nitrophenylacetate to 4-nitrophenol (absorbance at 405 nm). The experiment is classed as biochemical. Conditions: 1 nM MAGL, 300 μM 4-nitrophenylacetate, 15 min preincubation at RT, slope of absorbance at 405 nm between 5 and 80 min. As to the method: Compounds were profiled for MAGL inhibitory activity by measuring the enzymatic activity of MAGL by following the hydrolysis of 4-nitorphenylacetate resulting in 4-nitrophenol, which absorbs at 405-412 nm (G. G. Muccioli, G. Labar, D. M. Lambert, Chem. Bio. Chem. 2008, 9, 2704-2710).
The assay was carried out in 384 well assay plates (black with clear bottom, non-binding surface treated, Corning Ref. 3655) in a total volume of 40 μL. Compound dilutions were made in 100% DMSO (VWR Chemicals 23500.297) in a polypropylene plate in 3-fold dilution steps to give a final concentration range in the assay from 25 μM to 1.7 nM. 1 μL compound dilutions (100% DMSO) were added to 19 μL MAGL (recombinant wild-type) in assay buffer (50 mM TRIS (GIBCO, 15567-027), 1 mM EDTA (Fluka, 03690-100 ml)). The plate was shaked for 1 min at 2000 rpm (Variomag Teleshake) and then incubated for 15 min at RT. To start the reaction, 20 μL 4-Nitrophenlyacetate (Sigma N-8130) in assay buffer with 6% EtOH was added. The final concentrations in the assay were 1 nM MAGL and 300 μM 4-Nitrophenylacetate. After shaking (1 m, 2000 rpm) and 5 min incubation at RT, the absorbance at 405 nm was measured for a first time (Molecular Devices, SpectraMax Paradigm). A second measurement was then done after incubation for 80 min at RT. From the two measurements, the slope was calculated by subtracting the first from the second measurement.

In the case of `O=C1COc2ccc(C(=O)N3CCN(CCc4cccc(Cl)c4)C(c4cc[nH]n4)C3)cc2N1` (stereo not shown) [Example 35, 6-[4-[2-(3-chlorophenyl)ethyl]-3-(1H-pyrazol-3-yl)piperazine-1-carbonyl]-4H-1,4-benzoxazin-3-one], the IC50 turned out to be 1830 nM.

For `O=C1COc2ccc(C(=O)N3CCN(Cc4ccc(C(F)(F)F)cc4)C(C(F)(F)F)C3)cc2N1` (stereo not shown) [Example 36, 6-[3-(trifluoromethyl)-4-[[4-(trifluoromethyl)phenyl]methyl]piperazine-1-carbonyl]-4H-1,4-benzoxazin-3-one], the IC50 turned out to be 112 nM.

Take `O=C1COc2ccc(C(=O)N3CCC(Cc4cccc(C(F)(F)F)c4)C3)cc2N1` (stereo not shown) [Example 30, 6-[3-[[3-(trifluoromethyl)phenyl]methyl]pyrrolidine-1-carbonyl]-4H-1,4-benzoxazin-3-one]: the IC50 is 220 nM.

In the case of `O=C1COc2ccc(C(=O)N3CCN(Cc4ccc(C(F)(F)F)cc4)C(c4cc[nH]n4)C3)cc2N1` (stereo not shown) [Example 37, 6-[3-(1H-pyrazol-3-yl)-4-[[4-(trifluoromethyl)phenyl]methyl]piperazine-1-carbonyl]-4H-1,4-benzoxazin-3-one], the IC50 came out at 2250 nM.

Take `O=C1COc2ccc(C(=O)N3CCC(Cc4ccccc4)C3)cc2N1` (stereo not shown) [Example 28, 6-(3-benzylpyrrolidine-1-carbonyl)-4H-1,4-benzoxazin-3-one]: the IC50 was determined as 840 nM.

On to `O=C1COc2ccc(C(=O)N3CCC(Cc4ccc(F)cc4)CC3)cc2N1` [Example 3, 6-[4-[(4-fluorophenyl)methyl]piperidine-1-carbonyl]-4H-1,4-benzoxazin-3-one], for which the IC50 turned out to be 88 nM.

In the case of `O=C1COc2ccc(C(=O)N3CCC(Cc4ccc(Cl)cc4)CC3)cc2N1` [Example 12, 6-[4-[(4-chlorophenyl)methyl]piperidine-1-carbonyl]-4H-1,4-benzoxazin-3-one], the IC50 was found to be 48 nM.

In general, IC50 refers to the concentration needed to halve the response being measured.
